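1) Cells in 96-well plates. 2) Compound, 48 h, 5 concentrations. 3) Linear interpolation between surrounding doses. 4) Unreached endpoint = highest concentration. The concentration for 50% growth inhibition is given as GI50. TGI denotes the concentration required for complete inhibition of growth.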 Calls of active or inactive are those of the source. Cut-off read from the data, not from the text of the source: active = GI50 below about 0.43 µM; inactive = the rest.
Assays:
Experiment in all cases: NCI tumour cell line growth inhibition, 48 h
786-0 renal = system: 786-0 renal
A549 NSCLC = system: A549 NSCLC
ACHN renal = system: ACHN renal
BT-549 breast = system: BT-549 breast
CAKI-1 renal = system: CAKI-1 renal
CCRF-CEM leukemia = system: CCRF-CEM leukemia
COLO 205 colon = system: COLO 205 colon
DU-145 prostate = system: DU-145 prostate
EKVX NSCLC = system: EKVX NSCLC
HCC-2998 colon = system: HCC-2998 colon
HCT-116 colon = system: HCT-116 colon
HCT-15 colon = system: HCT-15 colon
HL-60(TB) leukemia = system: HL-60(TB) leukemia
HOP-62 NSCLC = system: HOP-62 NSCLC
HOP-92 NSCLC = system: HOP-92 NSCLC
HS 578T breast = system: HS 578T breast
HT29 colon = system: HT29 colon
IGROV1 ovarian = system: IGROV1 ovarian
KM12 colon = system: KM12 colon
LOX IMVI melanoma = system: LOX IMVI melanoma
M14 melanoma = system: M14 melanoma
MALME-3M melanoma = system: MALME-3M melanoma
MCF7 breast = system: MCF7 breast
MDA-MB-231 breast = system: MDA-MB-231 breast
MDA-MB-435 = system: MDA-MB-435
MOLT-4 leukemia = system: MOLT-4 leukemia
NCI-H226 lung = system: NCI-H226 lung
NCI-H23 lung = system: NCI-H23 lung
NCI-H460 lung = system: NCI-H460 lung
NCI-H522 lung = system: NCI-H522 lung
NCI/ADR-RES ovarian = system: NCI/ADR-RES ovarian
OVCAR-3 ovarian = system: OVCAR-3 ovarian
OVCAR-4 ovarian = system: OVCAR-4 ovarian
OVCAR-5 ovarian = system: OVCAR-5 ovarian
OVCAR-8 ovarian = system: OVCAR-8 ovarian
PC-3 prostate = system: PC-3 prostate
RPMI-8226 leukemia = system: RPMI-8226 leukemia
SF-268 CNS = system: SF-268 CNS
SF-295 CNS = system: SF-295 CNS
SF-539 CNS = system: SF-539 CNS
SK-MEL-2 melanoma = system: SK-MEL-2 melanoma
SK-MEL-28 melanoma = system: SK-MEL-28 melanoma
SK-MEL-5 melanoma = system: SK-MEL-5 melanoma
SK-OV-3 ovarian = system: SK-OV-3 ovarian
SN12C renal = system: SN12C renal
SNB-19 CNS = system: SNB-19 CNS
SNB-75 CNS = system: SNB-75 CNS
SR leukemia = system: SR leukemia
SW-620 colon = system: SW-620 colon
T-47D breast = system: T-47D breast
TK-10 renal = system: TK-10 renal
U251 CNS = system: U251 CNS
UACC-257 melanoma = system: UACC-257 melanoma
UACC-62 melanoma = system: UACC-62 melanoma
UO-31 renal = system: UO-31 renal
A498 renal = system: A498 renal
K-562 leukemia = system: K-562 leukemia
RXF 393 renal = system: RXF 393 renal

SMILES: COC(=O)CCC1=CCC2(SC)C(=O)Nc3cccc1c32 (stereo not given)
- TGI (786-0 renal): > 100 µM
- TGI (A549 NSCLC): > 100 µM
- TGI (ACHN renal): > 100 µM
- TGI (BT-549 breast): > 100 µM
- TGI (CAKI-1 renal): > 100 µM
- TGI (CCRF-CEM leukemia): > 100 µM
- TGI (COLO 205 colon): > 100 µM
- TGI (DU-145 prostate): > 100 µM
- TGI (EKVX NSCLC): > 100 µM
- TGI (HCC-2998 colon): > 100 µM
- TGI (HCT-116 colon): > 100 µM
- TGI (HCT-15 colon): > 100 µM
- TGI (HL-60(TB) leukemia): > 100 µM
- TGI (HOP-62 NSCLC): > 100 µM
- TGI (HOP-92 NSCLC): > 100 µM
- TGI (HS 578T breast): > 100 µM
- TGI (HT29 colon): > 100 µM
- TGI (IGROV1 ovarian): > 100 µM
- TGI (KM12 colon): > 100 µM
- TGI (LOX IMVI melanoma): > 100 µM
- TGI (M14 melanoma): > 100 µM
- TGI (MALME-3M melanoma): > 100 µM
- TGI (MCF7 breast): > 100 µM
- TGI (MDA-MB-231 breast): > 100 µM
- TGI (MDA-MB-435): > 100 µM
- TGI (MOLT-4 leukemia): > 100 µM
- TGI (NCI-H226 lung): > 100 µM
- TGI (NCI-H23 lung): > 100 µM
- TGI (NCI-H460 lung): > 100 µM
- TGI (NCI-H522 lung): > 100 µM
- TGI (NCI/ADR-RES ovarian): > 100 µM
- TGI (OVCAR-3 ovarian): > 100 µM
- TGI (OVCAR-4 ovarian): > 100 µM
- TGI (OVCAR-5 ovarian): > 100 µM
- TGI (OVCAR-8 ovarian): > 100 µM
- TGI (PC-3 prostate): > 100 µM
- TGI (RPMI-8226 leukemia): > 100 µM
- TGI (SF-268 CNS): > 100 µM
- TGI (SF-295 CNS): > 100 µM
- TGI (SF-539 CNS): > 100 µM
- TGI (SK-MEL-2 melanoma): > 100 µM
- TGI (SK-MEL-28 melanoma): > 100 µM
- TGI (SK-MEL-5 melanoma): > 100 µM
- TGI (SK-OV-3 ovarian): > 100 µM
- TGI (SN12C renal): > 100 µM
- TGI (SNB-19 CNS): > 100 µM
- TGI (SNB-75 CNS): > 100 µM
- TGI (SR leukemia): > 100 µM
- TGI (SW-620 colon): > 100 µM
- TGI (T-47D breast): > 100 µM
- TGI (TK-10 renal): > 100 µM
- TGI (U251 CNS): > 100 µM
- TGI (UACC-257 melanoma): > 100 µM
- TGI (UACC-62 melanoma): > 100 µM
- TGI (UO-31 renal): > 100 µM

SMILES: O=[N+]([O-])C(=C(Cl)Cl)/C(Cl)=C(\Cl)Br
- outcome (A549 NSCLC): inactive
- outcome (DU-145 prostate): inactive
- outcome (HS 578T breast): inactive
- outcome (OVCAR-5 ovarian): inactive
- outcome (SF-295 CNS): inactive
- outcome (SNB-19 CNS): inactive
- outcome (UACC-62 melanoma): inactive

SMILES: CC(C)=CCNc1ncnc2c1ncn2C1OC(CO)C(O)C1O (stereo not given)
- GI50 (786-0 renal): 1.37 µM
- TGI (786-0 renal): 11.4 µM
- GI50 (A498 renal): 0.405 µM
- TGI (A498 renal): 1.51 µM
- GI50 (A549 NSCLC): 2.85 µM
- TGI (A549 NSCLC): 299 µM
- GI50 (ACHN renal): 0.987 µM
- TGI (ACHN renal): > 526 µM
- GI50 (BT-549 breast): 0.57 µM
- TGI (BT-549 breast): 2.8 µM
- GI50 (CAKI-1 renal): 0.721 µM
- TGI (CAKI-1 renal): 4.74 µM
- GI50 (CCRF-CEM leukemia): 0.456 µM
- TGI (CCRF-CEM leukemia): 3.17 µM
- GI50 (COLO 205 colon): 3.96 µM
- TGI (COLO 205 colon): 550 µM
- GI50 (DU-145 prostate): 0.277 µM
- TGI (DU-145 prostate): 0.943 µM
- GI50 (EKVX NSCLC): 7.79 µM
- TGI (EKVX NSCLC): > 1000 µM
- GI50 (HCC-2998 colon): 4.49 µM
- TGI (HCC-2998 colon): 94.3 µM
- GI50 (HCT-116 colon): 0.499 µM
- TGI (HCT-116 colon): 5.77 µM
- GI50 (HCT-15 colon): 1.05 µM
- TGI (HCT-15 colon): 36.8 µM
- GI50 (HL-60(TB) leukemia): 0.29 µM
- TGI (HL-60(TB) leukemia): 0.822 µM
- GI50 (HOP-62 NSCLC): 1.3 µM
- TGI (HOP-62 NSCLC): 6.7 µM
- GI50 (HOP-92 NSCLC): 1.14 µM
- TGI (HOP-92 NSCLC): 3.99 µM
- GI50 (HS 578T breast): 0.684 µM
- TGI (HS 578T breast): 4.33 µM
- GI50 (HT29 colon): 1.34 µM
- TGI (HT29 colon): > 1000 µM
- GI50 (IGROV1 ovarian): 0.573 µM
- TGI (IGROV1 ovarian): 19.2 µM
- GI50 (K-562 leukemia): 0.703 µM
- TGI (K-562 leukemia): > 380 µM
- GI50 (KM12 colon): 2.74 µM
- TGI (KM12 colon): > 630 µM
- GI50 (LOX IMVI melanoma): 0.353 µM
- TGI (LOX IMVI melanoma): 1.5 µM
- GI50 (M14 melanoma): 2.85 µM
- TGI (M14 melanoma): > 766 µM
- GI50 (MALME-3M melanoma): 226 µM
- TGI (MALME-3M melanoma): > 1000 µM
- GI50 (MCF7 breast): 0.624 µM
- TGI (MCF7 breast): 12.3 µM
- GI50 (MDA-MB-231 breast): 1.52 µM
- TGI (MDA-MB-231 breast): 9.33 µM
- GI50 (MDA-MB-435): 3.26 µM
- TGI (MDA-MB-435): > 1000 µM
- GI50 (MOLT-4 leukemia): 0.457 µM
- TGI (MOLT-4 leukemia): 3.82 µM
- GI50 (NCI-H226 lung): 2.6 µM
- TGI (NCI-H226 lung): 7.1 µM
- GI50 (NCI-H23 lung): 2.81 µM
- TGI (NCI-H23 lung): 125 µM
- GI50 (NCI-H460 lung): 4.02 µM
- TGI (NCI-H460 lung): > 345 µM
- GI50 (NCI/ADR-RES ovarian): 1.5 µM
- TGI (NCI/ADR-RES ovarian): 52.1 µM
- GI50 (OVCAR-3 ovarian): 0.373 µM
- TGI (OVCAR-3 ovarian): 1.1 µM
- GI50 (OVCAR-4 ovarian): 0.793 µM
- TGI (OVCAR-4 ovarian): > 1000 µM
- GI50 (OVCAR-5 ovarian): 13.3 µM
- TGI (OVCAR-5 ovarian): > 1000 µM
- GI50 (OVCAR-8 ovarian): 0.496 µM
- TGI (OVCAR-8 ovarian): 3.34 µM
- GI50 (PC-3 prostate): 0.616 µM
- TGI (PC-3 prostate): 31 µM
- GI50 (RPMI-8226 leukemia): 2.91 µM
- TGI (RPMI-8226 leukemia): 25.2 µM
- GI50 (RXF 393 renal): 0.488 µM
- TGI (RXF 393 renal): 2.6 µM
- GI50 (SF-268 CNS): 2 µM
- TGI (SF-268 CNS): > 432 µM
- GI50 (SF-295 CNS): 0.671 µM
- TGI (SF-295 CNS): 2.6 µM
- GI50 (SF-539 CNS): 2.22 µM
- TGI (SF-539 CNS): 7.65 µM
- GI50 (SK-MEL-2 melanoma): 16.2 µM
- TGI (SK-MEL-2 melanoma): 334 µM
- GI50 (SK-MEL-28 melanoma): > 346 µM
- TGI (SK-MEL-28 melanoma): > 1000 µM
- GI50 (SK-MEL-5 melanoma): 5.74 µM
- TGI (SK-MEL-5 melanoma): > 1000 µM
- GI50 (SK-OV-3 ovarian): 1.75 µM
- TGI (SK-OV-3 ovarian): 33.5 µM
- GI50 (SN12C renal): 1.36 µM
- TGI (SN12C renal): > 408 µM
- GI50 (SNB-19 CNS): 3.81 µM
- TGI (SNB-19 CNS): > 201 µM
- GI50 (SNB-75 CNS): 2.52 µM
- TGI (SNB-75 CNS): 55.9 µM
- GI50 (SR leukemia): 0.799 µM
- TGI (SR leukemia): > 334 µM
- GI50 (SW-620 colon): 0.725 µM
- TGI (SW-620 colon): 24.7 µM
- GI50 (T-47D breast): 0.983 µM
- TGI (T-47D breast): 3.92 µM
- GI50 (TK-10 renal): 1.04 µM
- TGI (TK-10 renal): 85.6 µM
- GI50 (U251 CNS): 36.2 µM
- TGI (U251 CNS): > 1000 µM
- GI50 (UACC-257 melanoma): > 792 µM
- TGI (UACC-257 melanoma): > 1000 µM
- TGI (UACC-62 melanoma): > 1000 µM
- GI50 (UO-31 renal): 6.94 µM
- TGI (UO-31 renal): 50 µM

Source: PubChem BioAssay (NCI)
